Data as given in patent publication US7786141B2 (Vertex Pharmaceuticals Incorporated, priority 2004, dated 2010).
Like-named read-outs stand apart in the source and are kept apart here.

Assays:
M4 muscarinic receptor = target: T1, M4 muscarinic receptor (Homo sapiens, UniProt P08173); assay: Functional mobilization of intracellular calcium (FLIPR) in M4-CHO cells; assay type: cell-based
T1 construct: expressed in transfected cells; host or cells: CHO (M4-CHO)
T1 sequence (P08173 1-479): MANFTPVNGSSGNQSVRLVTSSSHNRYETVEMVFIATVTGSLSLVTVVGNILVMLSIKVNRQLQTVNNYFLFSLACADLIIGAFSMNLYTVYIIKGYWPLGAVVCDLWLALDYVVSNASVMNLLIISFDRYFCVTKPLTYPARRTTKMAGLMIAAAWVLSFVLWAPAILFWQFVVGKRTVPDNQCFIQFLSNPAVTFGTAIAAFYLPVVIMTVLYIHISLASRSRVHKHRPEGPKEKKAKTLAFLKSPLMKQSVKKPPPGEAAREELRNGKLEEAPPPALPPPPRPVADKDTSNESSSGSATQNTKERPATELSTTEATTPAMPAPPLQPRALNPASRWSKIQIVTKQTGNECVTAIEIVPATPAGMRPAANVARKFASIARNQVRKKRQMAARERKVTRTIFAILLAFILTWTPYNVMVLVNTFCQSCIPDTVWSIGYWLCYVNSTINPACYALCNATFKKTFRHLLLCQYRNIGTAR
Summary of the method: (§1)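 Measured via Fluo-3 fluorescence on a FLIPR, CHO cells with either muscarinic subtype received compound in 0.5% DMSO. Antagonism was assessed after 15 min pre-incubation followed by carbachol at each subtype's EC80; agonism from compound addition alone.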

M1 muscarinic receptor = target: T2, M1 muscarinic receptor (Homo sapiens, UniProt P11229); assay: Functional mobilization of intracellular calcium (FLIPR) in M1-CHO cells; assay type: cell-based
T2 construct: expressed in transfected cells; host or cells: CHO (M1-CHO)
T2 sequence (P11229 1-460): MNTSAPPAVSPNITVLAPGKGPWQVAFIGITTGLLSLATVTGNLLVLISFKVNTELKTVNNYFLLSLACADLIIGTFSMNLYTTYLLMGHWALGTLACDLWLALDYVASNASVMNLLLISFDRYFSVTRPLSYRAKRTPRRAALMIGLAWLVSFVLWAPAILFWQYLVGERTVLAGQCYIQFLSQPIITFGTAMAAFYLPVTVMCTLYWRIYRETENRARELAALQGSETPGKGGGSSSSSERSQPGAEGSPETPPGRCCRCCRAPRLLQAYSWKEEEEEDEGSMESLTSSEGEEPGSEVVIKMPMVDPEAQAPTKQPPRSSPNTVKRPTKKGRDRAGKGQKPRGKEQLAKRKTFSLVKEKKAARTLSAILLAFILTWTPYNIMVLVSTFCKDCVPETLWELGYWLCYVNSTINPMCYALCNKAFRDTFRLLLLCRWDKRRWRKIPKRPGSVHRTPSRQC
Summary of the method: as §1

[1] = Table 4, 100% efficacy is the maximum response obtained with the Carbachol control
[2] = Table 4, modulating M4 receptor
[3] = Table 4, modulating M1 receptor
[4] = M4 receptor, calcium mobilization
[5] = M4 receptor, calcium mobilization, read-out: M4 Efficacy
[6] = M1 receptor, calcium mobilization
[7] = M1 receptor, calcium mobilization, read-out: M1 Efficacy
[8] = Table 4, M4 receptor, calcium mobilization (FLIPR)
[9] = Table 4, M1 receptor, calcium mobilization (FLIPR)

Compound | Emax (M4 muscarinic receptor; [1]) [%] | Emax (M1 muscarinic receptor; [1]) [%] | M4 Activity (M4 muscarinic receptor; [4]) | Emax (M4 muscarinic receptor; [5]) [%] | M1 Activity (M1 muscarinic receptor; [6]) | Emax (M1 muscarinic receptor; [7]) [%] | further results
CC(=O)N1CC2(CCN(C3CCNCC3)CC2)c2cc(F)ccc21 [compound 547] | 25 to 100 | 25 to 100 |  |  |  |  | M4 Activity (M4 muscarinic receptor; [2]): x (activity was measured to be greater than 5.0 μM); M1 Activity (M1 muscarinic receptor; [3]): xx (activity was measured to be between 2.0 μM and 5.0 μM)
CC(=O)N[C@H]1CC2(CCN(C3CCC(C)CC3)CC2)c2ccccc21 (some centres unmarked) [compound 280] |  |  | x (activity was measured to be greater than 1.0 μM) | 65 to 85 | x (activity was measured to be greater than 1.0 μM) | 65 to 85 | 
CC(=O)N[C@H]1CC2(CCN(C3CCC(c4ccccc4)CC3)CC2)c2ccccc21 (some centres unmarked) [compound 273] |  |  | xx (activity was measured to be between 0.1 μM and 1.0 μM) | > 85 | xxx (activity was measured to be less than 0.1 μM) | > 85 | 
CCCNC(=O)N1C2CCC1CC(N1CCC3(CC1)COc1ccc(F)cc13)C2 (centres unmarked) [compound 231] |  |  | x (activity was measured to be greater than 1.0 μM) | > 85 | x (activity was measured to be greater than 1.0 μM) | 65 to 85 | 
CC(=O)NC1CC2(CCN(C3CCN(C(=O)c4cccc(C(F)(F)F)c4)CC3)CC2)c2ccccc21 (centres unmarked) [compound 978] | < 25 | < 25 |  |  |  |  | M4 Activity (M4 muscarinic receptor; [8]): x (activity was measured to be greater than 5.0 μM); M1 Activity (M1 muscarinic receptor; [9]): x (activity was measured to be greater than 5.0 μM)
CCOC(=O)N1C2CCC1CC(N1CCC3(CC1)COc1ccc(F)cc13)C2 (centres unmarked) [compound 42] |  |  | xx (activity was measured to be between 0.1 μM and 1.0 μM) | > 85 | xxx (activity was measured to be less than 0.1 μM) | > 85 | 
COCCOC(=O)N1C2CCC1CC(N1CCC3(CC1)CN(C(=O)C1CC1)c1ccc(F)cc13)C2 (centres unmarked) [compound 311] |  |  | x (activity was measured to be greater than 1.0 μM) | 65 to 85 | xxx (activity was measured to be less than 0.1 μM) | 65 to 85 | 
CC#CC(C)OC(=O)N1CCC(N2CCC3(CC2)CN(C(=O)N(C)C)c2ccc(F)cc23)CC1 (centres unmarked) [compound 614] | 25 to 100 | 25 to 100 |  |  |  |  | M4 Activity (M4 muscarinic receptor; [2]): xxx (activity was measured to be less than 2.0 μM); M1 Activity (M1 muscarinic receptor; [3]): xxx (activity was measured to be less than 2.0 μM)
Cc1ccc2c(c1)C1(CCN(C3CC4CCC3C4)CC1)CN2C(=O)C1CC1 (centres unmarked) [compound 51] |  |  | xx (activity was measured to be between 0.1 μM and 1.0 μM) | 65 to 85 | xxx (activity was measured to be less than 0.1 μM) | 65 to 85 | 
CC(=O)N[C@H]1CCC2(CCN(CC3CCCC3)CC2)c2ccccc21 [compound 993] | 25 to 100 | 25 to 100 |  |  |  |  | M4 Activity (M4 muscarinic receptor; [8]): xxx (activity was measured to be less than 2.0 μM); M1 Activity (M1 muscarinic receptor; [9]): xxx (activity was measured to be less than 2.0 μM)
O=C(OC1CCC1)N1C2CCC1CC(N1CCC3(CC1)COc1ccc(F)cc13)C2 (centres unmarked) [compound 123] |  |  | x (activity was measured to be greater than 1.0 μM) | < 65 | xx (activity was measured to be between 0.1 μM and 1.0 μM) | < 65 | 
CN(C)C(=O)N1CC2(CCN(C3CCN(C(=O)c4ccnnc4)CC3)CC2)c2cc(F)ccc21 [compound 988] | 25 to 100 | 25 to 100 |  |  |  |  | M4 Activity (M4 muscarinic receptor; [8]): xxx (activity was measured to be less than 2.0 μM); M1 Activity (M1 muscarinic receptor; [9]): xxx (activity was measured to be less than 2.0 μM)
Cc1cnc(C)c(N2CCC(N3CCC4(CC3)CN(C(=O)N(C)C)c3ccc(F)cc34)CC2)n1 [compound 659] | 25 to 100 | 25 to 100 |  |  |  |  | M4 Activity (M4 muscarinic receptor; [2]): xxx (activity was measured to be less than 2.0 μM); M1 Activity (M1 muscarinic receptor; [3]): xxx (activity was measured to be less than 2.0 μM)
COc1ccccc1N1CCC(N2CCC3(CC2)CN(C(=O)N(C)C)c2ccc(F)cc23)CC1 [compound 552] | 25 to 100 | 25 to 100 |  |  |  |  | M4 Activity (M4 muscarinic receptor; [2]): x (activity was measured to be greater than 5.0 μM); M1 Activity (M1 muscarinic receptor; [3]): x (activity was measured to be greater than 5.0 μM)
CC(=O)N[C@H]1CCC2(CCN(C3CCN(C(=O)OC(C)(C)C)CC3)CC2)c2ccccc21 [compound 912] | < 25 | 25 to 100 |  |  |  |  | M4 Activity (M4 muscarinic receptor; [8]): x (activity was measured to be greater than 5.0 μM); M1 Activity (M1 muscarinic receptor; [9]): xxx (activity was measured to be less than 2.0 μM)
CCOC(=O)N1CCC(N2CCC3(CC2)CN(C(C)=O)c2ccc(-c4ccc(C(F)(F)F)cc4)cc23)CC1 [compound 295] |  |  | xxx (activity was measured to be less than 0.1 μM) | 65 to 85 | xxx (activity was measured to be less than 0.1 μM) | 65 to 85 | 
CCCOC(=O)N1CCC(N2CCC3(CC2)CN(C(=O)N(C)C)c2ccc(F)cc23)CC1 [compound 91] |  |  | xx (activity was measured to be between 0.1 μM and 1.0 μM) | < 65 | xxx (activity was measured to be less than 0.1 μM) | 65 to 85 | 
Clc1ccc2c(c1)C1(CCN(C3CCC4CCC3C4)CC1)CN2 (centres unmarked) [compound 348] |  |  | xx (activity was measured to be between 0.1 μM and 1.0 μM) | > 85 | xxx (activity was measured to be less than 0.1 μM) | > 85 | 
O=C1CC2(CCN(CC3CCCCC3)C2)c2ccc(F)cc21 (centres unmarked) [compound 846] | < 25 | < 25 |  |  |  |  | M4 Activity (M4 muscarinic receptor; [8]): xx (activity was measured to be between 2.0 μM and 5.0 μM); M1 Activity (M1 muscarinic receptor; [9]): xx (activity was measured to be between 2.0 μM and 5.0 μM)
CC(=O)N1CC2(CCN(C3CCN(c4cncc(C)n4)CC3)CC2)c2ccccc21 [compound 489] | 25 to 100 | 25 to 100 |  |  |  |  | M4 Activity (M4 muscarinic receptor; [2]): xxx (activity was measured to be less than 2.0 μM); M1 Activity (M1 muscarinic receptor; [3]): xxx (activity was measured to be less than 2.0 μM)
COc1cccc(N2CCC(N3CCC4(CC3)CN(C(=O)N(C)C)c3ccc(F)cc34)CC2)c1 [compound 735] | 25 to 100 | 25 to 100 |  |  |  |  | M4 Activity (M4 muscarinic receptor; [2]): xxx (activity was measured to be less than 2.0 μM); M1 Activity (M1 muscarinic receptor; [3]): xx (activity was measured to be between 2.0 μM and 5.0 μM)
COCCOC(=O)N1C2CCC1CC(N1CCC3(CC1)COc1ccc(F)cc13)C2 (centres unmarked) [compound 378] |  |  |  |  |  |  | EC50 (M4 muscarinic receptor; M4-CHO cells, calcium mobilization (FLIPR)): > 1000 nM; Emax (M4 muscarinic receptor; M4-CHO cells, calcium mobilization (FLIPR), read-out: M4 Efficacy): 65 to 85%; EC50 (M1 muscarinic receptor; M1-CHO cells, calcium mobilization (FLIPR)): 100 to 1000 nM; Emax (M1 muscarinic receptor; M1-CHO cells, calcium mobilization (FLIPR), read-out: M1 Efficacy): 65 to 85%
O=C1CCCN1[C@H]1CCC2(CCN([C@H]3CC4CC[C@H](C4)C3)CC2)c2ccccc21 [compound 854] | 25 to 100 | 25 to 100 |  |  |  |  | M4 Activity (M4 muscarinic receptor; [8]): xxx (activity was measured to be less than 2.0 μM); M1 Activity (M1 muscarinic receptor; [9]): xxx (activity was measured to be less than 2.0 μM)
